Experiments:
Histone deacetylase 1 [1] = target: T1, Histone deacetylase 1 (Homo sapiens, UniProt Q13547); assay: Potency index, ratio of vorinostat IC50 to compound IC50 for HDAC1 (unknown origin)
Histone deacetylase 1 [2] = target: T1, Histone deacetylase 1; assay: Inhibition of HDAC1 (unknown origin)
CDK4/Cyclin D3 = CDK4/Cyclin D3 (Homo sapiens, UniProt P11802); assay: Inhibition of recombinant human full length N-terminal GST-tagged CDK4/Cyclin-D3 co-expressed in baculovirus infected sf21 cells using Rb substrate in presence of [gamma33P]ATP after 10 mins by scintillation counting method
CDK4/Cyclin D3, sequence (P11802 whole entry): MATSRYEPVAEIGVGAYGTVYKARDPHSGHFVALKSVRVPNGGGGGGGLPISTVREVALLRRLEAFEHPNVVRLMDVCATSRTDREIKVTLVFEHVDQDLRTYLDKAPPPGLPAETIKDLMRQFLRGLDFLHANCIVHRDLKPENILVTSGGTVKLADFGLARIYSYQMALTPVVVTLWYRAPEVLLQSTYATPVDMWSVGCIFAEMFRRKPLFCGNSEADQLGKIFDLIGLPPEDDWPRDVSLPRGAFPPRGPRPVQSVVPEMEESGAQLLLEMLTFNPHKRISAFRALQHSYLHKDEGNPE
CDK4/Cyclin D3, sequence (P30281 whole entry, further chain): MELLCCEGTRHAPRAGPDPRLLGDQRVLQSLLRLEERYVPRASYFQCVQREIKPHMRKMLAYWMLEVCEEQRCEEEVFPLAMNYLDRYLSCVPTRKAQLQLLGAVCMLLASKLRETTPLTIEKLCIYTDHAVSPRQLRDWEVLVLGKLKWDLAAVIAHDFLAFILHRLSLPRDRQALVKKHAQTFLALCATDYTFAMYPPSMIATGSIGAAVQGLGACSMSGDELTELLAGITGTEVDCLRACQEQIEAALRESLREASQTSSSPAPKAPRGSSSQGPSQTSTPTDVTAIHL

T1 sequence (Q13547 whole entry): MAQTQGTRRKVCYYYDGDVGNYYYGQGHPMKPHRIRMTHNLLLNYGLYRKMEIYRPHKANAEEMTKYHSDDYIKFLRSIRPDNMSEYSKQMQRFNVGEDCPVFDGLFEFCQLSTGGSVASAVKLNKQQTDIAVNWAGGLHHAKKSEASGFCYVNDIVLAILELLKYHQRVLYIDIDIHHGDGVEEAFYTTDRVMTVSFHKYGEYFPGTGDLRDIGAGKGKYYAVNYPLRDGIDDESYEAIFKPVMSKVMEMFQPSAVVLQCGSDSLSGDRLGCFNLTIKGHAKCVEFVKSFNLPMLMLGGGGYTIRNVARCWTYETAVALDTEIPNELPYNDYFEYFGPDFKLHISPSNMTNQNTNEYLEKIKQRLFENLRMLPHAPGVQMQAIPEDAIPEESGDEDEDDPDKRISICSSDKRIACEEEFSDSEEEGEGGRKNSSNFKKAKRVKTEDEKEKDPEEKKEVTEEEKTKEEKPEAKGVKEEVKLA

SMILES | Ratio IC50 (Histone deacetylase 1 [1]) | IC50 (Histone deacetylase 1 [2]) [nM] | IC50 (CDK4/Cyclin D3) [nM]
COC(=O)CCCCCCC(=O)Nc1ccc(Nc2ncc3nnn(C4CCCC4)c3n2)cc1 | 10 to 100 | > 5000 | 857
COC(=O)CCCCCCC(=O)Nc1ccc(Nc2ncc3ncn(C4CCCC4)c3n2)cc1 | 10 to 100 | > 5000 | > 5000
CN(C)C(=O)c1cc2cnc(Nc3ccc(NC(=O)NCCCCCC(=O)NO)cc3)nc2n1C1CCCC1 | 10 to 100 | 1.6 | 8.4
O=C(CCCCCCC(=O)Nc1ccc(Nc2ncc3nnn(C4CCCC4)c3n2)cc1)NO | 10 to 100 | 433 | 1140
CN(C)C(=O)c1cc2cnc(Nc3ccc(C(=O)NCCCCCC(=O)NO)cc3)nc2n1C1CCCC1 | 10 to 100 | 0.53 | 9.6
COC(=O)CCCCNC(=O)c1ccc(Nc2ncc3cc(C(=O)N(C)C)n(C4CCCC4)c3n2)cc1 | – | – | 6.3
CN(C)C(=O)c1cc2cnc(Nc3ccc(NC(=O)CCCCC(=O)NO)cc3)nc2n1C1CCCC1 | 10 to 100 | 27 | 11
CN(C)C(=O)c1cc2cnc(Nc3ccc(NC(=O)CCCCCC(=O)NO)cc3)nc2n1C1CCCC1 | 10 to 100 | 0.84 | 10
COC(=O)CCCCCCC(=O)N1CCN(c2ccc(Nc3ncc4cc(C(=O)N(C)C)n(C5CCCC5)c4n3)nc2)CC1 | 10 to 100 | > 5000 | 13

Next, values leading:

Ratio IC50 (Histone deacetylase 1 [1]) | IC50 (Histone deacetylase 1 [2]) [nM] | IC50 (CDK4/Cyclin D3) [nM] | SMILES
10 to 100 | 1.4 | 12 | CN(C)C(=O)c1cc2cnc(Nc3ccc(C(=O)NCCCCCCC(=O)NO)cc3)nc2n1C1CCCC1
– | – | > 5000 | COC(=O)CCCCCCC(=O)Nc1ccccc1Nc1ncc2cc(C(=O)N(C)C)n(C3CCCC3)c2n1
– | – | 24 | COC(=O)CCCCCCCC(=O)Nc1ccc(Nc2ncc3cc(C(=O)N(C)C)n(C4CCCC4)c3n2)cc1
10 to 100 | > 5000 | 47 | COC(=O)CCCCCCC(=O)Nc1ccc(Nc2ncc3cc(C(=O)N(C)C)n(C4CCCC4)c3n2)nc1
10 to 100 | 0.84 | 30 | CN(C)C(=O)c1cc2cnc(Nc3cccc(NC(=O)CCCCCCC(=O)NO)c3)nc2n1C1CCCC1
– | – | 11 | CN(C)C(=O)c1cc2cnc(Nc3ccc(C(=O)NCCCCC(=O)NO)cc3)nc2n1C1CCCC1
10 to 100 | > 5000 | 16 | CN(C)C(=O)CCCCCCC(=O)Nc1ccc(Nc2ncc3cc(C(=O)N(C)C)n(C4CCCC4)c3n2)cc1
– | – | 27 | CCCCCCC(=O)Nc1ccc(Nc2ncc3cc(C(=O)N(C)C)n(C4CCCC4)c3n2)cc1
– | – | > 5000 | COC(=O)CCCCCCC(=O)NNc1ncc2cc(C(=O)N(C)C)n(C3CCCC3)c2n1
– | – | 123 | CCCCCCCCC(=O)Nc1ccc(Nc2ncc3cc(C(=O)N(C)C)n(C4CCCC4)c3n2)cc1
– | – | 25 | COC(=O)CCCCCCC(=O)NCc1ccc(Nc2ncc3cc(C(=O)N(C)C)n(C4CCCC4)c3n2)cc1
– | – | 4.8 | COC(=O)CCCCC(=O)Nc1ccc(Nc2ncc3cc(C(=O)N(C)C)n(C4CCCC4)c3n2)cc1
